# From US7138361B2, “Herbicidal heterocycles” (E. I. du Pont de Nemours and Company, priority 2000, dated 2006)
# What was measured:
# Type in all cases: in vivo
# Nightshade [1] = assay: Test C preemergence; conditions: Rate 500 g/ha, visual evaluation after 12 to 14 days
# [2] = tested on: barnyardgrass (Echinochloa crus-galli); assay: Test C flooded paddy test; conditions: for Barnyardgrass plant response rating: Flooded Paddy, scale 0 to 100, 0 no effect, 100 complete control; for Plant response rating, Barnyardgrass: flooded paddy test, scale 0 to 100 (0 no effect, 100 complete control)
# Method in brief: (§1)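 Visually assessed vs untreated controls 12–14 d post-treatment (greenhouse). Flooded paddy plants were at the 2-leaf stage; scale 0 = no effect, 100 = complete control.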
# [3] = tested on: smallflower flatsedge (Cyperus difformis); assay: Test C flooded paddy test; conditions: for Plant response rating, Flatsedge: flooded paddy test, scale 0 to 100 (0 no effect, 100 complete control)
# Method in brief: as §1
# [4] = tested on: duck salad (Heteranthera limosa); assay: Test C flooded paddy test; conditions: for Plant response rating, Ducksalad: flooded paddy test, scale 0 to 100 (0 no effect, 100 complete control)
# Method in brief: as §1
# rice (Oryza saliva) = assay: Test C flooded paddy test; conditions: for Rice plant response rating: Flooded Paddy, scale 0 to 100, 0 no effect, 100 complete control; for Plant response rating, Rice: flooded paddy test, scale 0 to 100 (0 no effect, 100 complete control)
# Method in brief: as §1
# [5] = tested on: lambsquarters (Chenopodium album); assay: Test C preemergence
# Method in brief: (§2)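 Preemergence: seeds sown then treated. Postemergence: plants 2–18 cm, 1- to 4-leaf. Both with surfactant-containing solvent formulation; visual injury scored 0–100 after 12–14 d.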
# [6] = tested on: pigweed (Amaranthus retroflexus); assay: Test C preemergence
# Method in brief: as §2
# Nightshade [7] = assay: Test C preemergence
# [8] = tested on: yellow nutsedge (Cyperus esculentus); assay: Test C preemergence
# Method in brief: as §2
# corn (Zea mays) [9] = assay: Test C preemergence; conditions: for Plant response rating (0 to 100), Corn: visual evaluation after 12 to 14 days
# Method in brief: as §2
# kochia (Kochia scoparia) = assay: Test C preemergence; conditions: for Plant response rating (0 to 100), Kochia: visual evaluation after 12 to 14 days
# Method in brief: as §2
# [10] = tested on: johnsongrass (Sorghum halepense); assay: Test C preemergence; conditions: for Plant response rating (0 to 100), Johnsongrass: visual evaluation after 12 to 14 days
# Method in brief: as §2
# soybean (Glycine max) = assay: Test C preemergence
# Method in brief: as §2
# [11] = tested on: woolly cupgrass (Eriochloa villosa); assay: Test C preemergence; conditions: for Plant response rating (0 to 100), Cupgrass, Woolly: visual evaluation after 12 to 14 days
# Method in brief: as §2
# [12] = tested on: barnyardgrass (Echinochloa crus-galli); assay: Test B postemergence; conditions: 13 to 15 days
# Method in brief: (§3)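 Post-treatment, species sat 13–15 days under greenhouse conditions before visual scoring against controls, 0 (no effect) through 100 (complete control). Application preemergence to sown seeds or postemergence at 1- to 4-leaf stage, using a non-phytotoxic solvent/surfactant formulation.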
# wild oat (Avena fatua) = assay: Test B postemergence; conditions: 13 to 15 days
# Method in brief: as §3
# corn (Zea mays) [13] = assay: Test B postemergence; conditions: 13 to 15 days
# Method in brief: as §3
# [14] = tested on: wheat (Triticum aestivum); assay: Test B postemergence; conditions: 13 to 15 days
# Method in brief: as §3
# Sunflower = assay: Test C preemergence; conditions: Rate 250 g/ha, scale 0 to 100, 0 no effect, 100 complete control
# [15] = Flooded Paddy, Rate 250 g/ha, scale 0 to 100, 0 no effect, 100 complete control
# [16] = Rate 125 g/ha, scale 0 to 100, 0 no effect, 100 complete control
# [17] = preemergence, Rate 62 g/ha, scale 0 to 100
# [18] = preemergence, Rate 500 g/ha, visual evaluation after 12 to 14 days
# [19] = preemergence, Rate 250 g/ha, scale 0 to 100, 0 no effect, 100 complete control
# [20] = Rate 125 g/ha, scale 0 (no effect) to 100 (complete control)
# [21] = Rate 500 g/ha, scale 0 to 100, 0 is no effect, 100 is complete control
smiles,measurement,setting,value
CSc1cccc(N2CCC(n3ccc(C(C)(C)C)n3)C2=O)c1 (centres unmarked) [Compound 86],"Plant response rating (0 to 100), Nightshade",Nightshade [1],10
same,Barnyardgrass plant response rating,[2]; Rate 250 g/ha,100
same,Barnyardgrass plant response rating,[2]; Rate 500 g/ha,100
same,"Plant response rating, Barnyardgrass",[2]; Rate 62 g/ha,0
same,"Plant response rating, Barnyardgrass",[2]; Rate 125 g/ha,30
same,Flatsedge plant response rating,[3]; [15],70
same,"Plant response rating, Flatsedge",[3]; Rate 62 g/ha,0
same,"Plant response rating, Flatsedge",[3]; Rate 125 g/ha,0
same,Ducksalad plant response rating,[4]; [15],100
same,"Plant response rating, Ducksalad",[4]; Rate 62 g/ha,0
same,"Plant response rating, Ducksalad",[4]; Rate 125 g/ha,0
same,Rice plant response rating,rice (Oryza saliva); Rate 250 g/ha,0
same,Rice plant response rating,rice (Oryza saliva); Rate 500 g/ha,20
same,"Plant response rating, Rice",rice (Oryza saliva); Rate 62 g/ha,0
same,"Plant response rating, Rice",rice (Oryza saliva); Rate 125 g/ha,0
same,"Plant response rating, Lambsquarters",[5]; [16],100
same,"Plant response rating, Lambsquarters",[5]; [17],100
same,"Plant response rating (0 to 100), Lambsquarters",[5]; [18],100
same,"Plant response rating, Lambsquarters",[5]; [19],100
same,"Plant response rating, Pigweed",[6]; [16],100
same,"Plant response rating, Pigweed",[6]; [17],70
same,"Plant response rating (0 to 100), Pigweed",[6]; [18],100
same,"Plant response rating, Pigweed",[6]; [19],0
same,"Plant response rating, Nightshade","Nightshade [7]; Rate 62 g/ha, scale 0 to 100",0
same,"Plant response rating, Nightshade",Nightshade [7]; [16],0
same,"Plant response rating, Nightshade","Nightshade [7]; Rate 250 g/ha, scale 0 to 100, 0 no effect, 100 complete control",0
same,"Plant response rating, Nutsedge",[8]; [16],0
same,"Plant response rating, Nutsedge",[8]; [17],0
same,"Plant response rating (0 to 100), Nutsedge",[8]; [18],0
same,"Plant response rating, Nutsedge",[8]; [19],0
same,"Plant response rating, Corn",corn (Zea mays) [9]; [16],0
same,"Plant response rating, Corn",corn (Zea mays) [9]; [17],0
same,"Plant response rating (0 to 100), Corn","corn (Zea mays) [9]; preemergence, Rate 250 g/ha",0
same,"Plant response rating (0 to 100), Corn","corn (Zea mays) [9]; preemergence, Rate 500 g/ha",30
same,"Plant response rating, Kochia",kochia (Kochia scoparia); [16],90
same,"Plant response rating, Kochia",kochia (Kochia scoparia); [17],70
same,"Plant response rating (0 to 100), Kochia","kochia (Kochia scoparia); preemergence, Rate 250 g/ha",100
same,"Plant response rating (0 to 100), Kochia","kochia (Kochia scoparia); preemergence, Rate 500 g/ha",100
same,"Plant response rating, Johnsongrass",[10]; [16],20
same,"Plant response rating, Johnsongrass",[10]; [17],20
same,"Plant response rating (0 to 100), Johnsongrass","[10]; preemergence, Rate 250 g/ha",40
same,"Plant response rating (0 to 100), Johnsongrass","[10]; preemergence, Rate 500 g/ha",50
same,"Plant response rating, Soybean",soybean (Glycine max); [16],0
same,"Plant response rating, Soybean",soybean (Glycine max); [17],0
same,"Plant response rating (0 to 100), Soybean",soybean (Glycine max); [18],0
same,"Plant response rating, Soybean",soybean (Glycine max); [19],0
same,"Plant response rating, Cupgrass, Woolly",[11]; [16],30
same,"Plant response rating, Cupgrass, Woolly",[11]; [17],30
same,"Plant response rating (0 to 100), Cupgrass, Woolly","[11]; preemergence, Rate 250 g/ha",90
same,"Plant response rating (0 to 100), Cupgrass, Woolly","[11]; preemergence, Rate 500 g/ha",100
same,"Plant response rating, Barnyardgrass",[12]; [20],0
same,"Plant response rating, Barnyardgrass",[12]; [21],0
same,"Plant response rating, Wild Oat",wild oat (Avena fatua); [20],0
same,"Plant response rating, Wild Oat",wild oat (Avena fatua); [21],0
same,"Plant response rating, Corn",corn (Zea mays) [13]; [20],0
same,"Plant response rating, Corn",corn (Zea mays) [13]; [21],0
same,"Plant response rating, Wheat",[14]; [20],0
same,"Plant response rating, Wheat",[14]; [21],0
same,"Plant response rating, Sunflower",Sunflower,20
